Measurements as given in US20260345582A1, “PRODRUG FOR ANTI-AGING RELATED DISEASES AND USE METHOD THEREOF” (Beijing SunCell Bio-Medical Co., Ltd., priority 2022, published 2026).

Experiments:
[1] = biological target: E. coli-derived β-galactosidase (Escherichia coli, UniProt P00722); assay: in vitro enzymatic hydrolysis of the prodrug by β-galactosidase (HPLC); assay type: biochemical; conditions: role: substrate, 10 μM, β-galactosidase 10 U/μM, PBS 0.01 M pH 7.3, 37 °C, 6 hours, FIG. 2C
Procedure: Study of the Hydrolysis Reaction of A13bG
The in vitro enzymatic hydrolysis reaction was carried out using E. coli-derived β-galactosidase (Sigma) in PBS solution (0.01 M, pH 7.3) at a reaction concentration of 10 μM for both A13 and A13bG, and for 6 hours at 37 °C after the addition of β-galactosidase (10 U/μM). The hydrolysis reaction was monitored by the high performance liquid chromatography (HPLC). The compound A13 and the prodrug A13bG without enzyme reaction were analyzed by HPLC at the same conditions as the references. The chromatographic column model: Waters Acquity BEH C4, the conditions: 0.04 ml/min, (water (0.1% acetic acid)): the acetonitrile gradient elution: 98:2 1 min, 5:95 13 min, 5:95 18 min, 2:98 20 min.

[2] = test system: HELF cells (primary human embryonic lung fibroblast); assay: in vitro killing of induced senescent HELF cells (CCK-8); assay type: cell-based; conditions: lung-derived, FIG. 3C
Text: (§1) Induction of the Cellular Senescence

[3] = test system: MRC5 cells (human embryonic lung fibroblast cell line); assay: in vitro killing of induced senescent MRC5 cells (CCK-8); assay type: cell-based; conditions: lung-derived, FIG. 3G
Text: as §1

[4] = test system: HUVEC cells (human umbilical vein endothelial cell line); assay: in vitro killing of induced senescent HUVEC cells (CCK-8); assay type: cell-based; conditions: vascular endothelial-derived, FIG. 3F
Text: as §1

[5] = test system: senescent cells (HEF, HELF, A549, MRC5, BJ, HUVEC); assay: in vitro killing of senescent cells, multiple cell models (CCK-8); assay type: cell-based, human; conditions: FIG. 3B-3G
Text: as §1

[6] = test system: normal cells (HEF, HELF, A549, MRC5, BJ, HUVEC); assay: in vitro toxicity to normal (non-senescent) cells, multiple cell models (CCK-8); assay type: cell-based, human; conditions: especially some cells of primary origins sensitive to Bcl-xL inhibition
Text: as §1

[7] = plasma metabolic stability, human; assay type: in vitro ADME; conditions: 120 min
Procedure: (§2) Plasma Metabolic Stability
(§3) Termination of the reaction was accomplished by the addition of 3× volume of acetonitrile and centrifugation at 16000 g for 20 minutes. The supernatant was taken for a LC-MS/MS analysis. The chromatographic column: Waters XSelect HSS T3; the flow rate: 500 μL/min; the eluent: A, water (0.1% formic acid); B, acetonitrile (0.1% formic acid); the gradient elution: 0-1.5 min, 5% B, 1.5-9 min, 5%-80% B, 9-12 min, 80%-100% B, 12-14 min, 100% B, 14-14.3 min, 100%-5% B, 14.3-15 min, 5% B.

[8] = plasma metabolic stability, monkey; assay type: in vitro ADME; conditions: 120 min
Procedure: as §2, §3

[9] = plasma metabolic stability, canine; assay type: in vitro ADME; conditions: dog, 120 min
Procedure: as §2, §3

[10] = plasma metabolic stability, all species; assay type: in vitro ADME; conditions: human, monkey, canine, rat, and mouse; preliminary test
Procedure: as §2, §3

[11] = liver microsomal metabolic stability, human
Procedure: (§4) Hepatic Microsomal Metabolic Stability
A13bGa1 was co-incubated with the mouse, rat, canine, monkey and human […] and the incubation medium at a final drug concentration of 1 μM in the incubation system for 60 minutes. Samples were taken and analyzed at time points 0, 15, 30, 45 and 60 minutes during the incubation. The reaction was terminated by adding an amount of acetonitrile solution containing the internal standard. […] The residual percentage, half-life, intrinsic clearance, amplified clearance, hepatic clearance and hepatic extraction ratio were determined. The entire experiment was performed in triplicate. All data calculations were performed by Microsoft Excel software. Peak areas were detected by extracting the ionic spectrum. The in vitro half-life (t1/2) of the parent compound was detected by fitting the natural logarithm of the percentage elimination of the parent compound linearly to time.
The in vitro intrinsic clearance (in μL/min/mg protein) was calculated using the following equation: in vitro CLint=kV/N
The amplified clearance (in mL/min/kg) was calculated using the following equation: Amplified CLint=kV/N×the amplification factor
The hepatic clearance (in mL/min/kg) was calculated using the following equation: The predicted hepatic CLH=(Q×Fu/RB×the amplified CLint)/(Q+Fu/RB×the amplified CLint) • V=the incubation volume per well (0.2 mL); • N=the total amount of protein (mg) • Q=the hepatic blood flow (mL/min/kg) • Fu=the plasma free rate (assumed to be 1) • RB=the whole blood partition coefficient (assumed to be 1)
The hepatic uptake rate was calculated using the following equation:
The hepatic extraction ratio (ER)=(the predicted hepatic CLH)/Q

[12] = liver microsomal metabolic stability, all species; assay type: in vitro ADME, rat and mouse; conditions: human, monkey, canine, rat, mouse; Table 4
Procedure: as §4
The entire experiment was performed in triplicate. All data calculations were performed by Microsoft Excel software. Peak areas were detected by extracting the ionic spectrum.
The in vitro half-life (t1/2) was calculated by slope: in vitro t½=0.693/k

[13] = test system: mouse model of Bleomycin-induced pulmonary fibrosis; assay: Bleomycin-induced pulmonary fibrosis model, overall therapeutic effect; assay type: in vivo, C57 mice; conditions: 5 mg/kg i.p., four weeks
Procedure: A. Modelling of a mouse model of Bleomycin-induced pulmonary fibrosis, and the schematic diagram of treatment. Mice were modelled with Bleomycin administered via tracheal instillation on day 0, and the treatment with intraperitoneal injection of the drug was started on day 4. The drug was administered for 3 consecutive days per week, followed by a 4-day withdrawal, for 4 weeks.
All drugs were mixed in 85% physiological saline, 5% DMSO (Sigma, D8418) and 10% Solutol HS 15 (Sigma, 42966), and administered to mice by intraperitoneal (i.p.) injection. To treat the bleomycin-injured young mice, A13 (2 mg/kg), A13bGa1 (5 mg/kg), or an empty vehicle control was administered three consecutive days per week for four weeks. A1331852 (abbreviated as A13) was purchased from MCE.
Bleomycin-Induced Pulmonary Fibrosis
Bleomycin was purchased from Selleck. As previously reported (Bivas-Benita et al., Eur J Pharm Biopharm 61, 214-218 (2005)), a transtracheal injection of bleomycin (2 mg/kg) was performed to the young male C57 mice (8-10 weeks old) to induce lung fibrosis. Drug treatment was initiated four days after modelling, and the drug was administered three consecutive days per week for four consecutive weeks, after which the mice were executed for material collection.

[14] = 10 μM prodrug, read-out: The peak area after normalisation at minute 120, oxidative dehydrogenation metabolite
[15] = 10 μM, read-out: The peak area after normalisation at minute 120, initial drug

E. coli-derived β-galactosidase, sequence (P00722 whole entry): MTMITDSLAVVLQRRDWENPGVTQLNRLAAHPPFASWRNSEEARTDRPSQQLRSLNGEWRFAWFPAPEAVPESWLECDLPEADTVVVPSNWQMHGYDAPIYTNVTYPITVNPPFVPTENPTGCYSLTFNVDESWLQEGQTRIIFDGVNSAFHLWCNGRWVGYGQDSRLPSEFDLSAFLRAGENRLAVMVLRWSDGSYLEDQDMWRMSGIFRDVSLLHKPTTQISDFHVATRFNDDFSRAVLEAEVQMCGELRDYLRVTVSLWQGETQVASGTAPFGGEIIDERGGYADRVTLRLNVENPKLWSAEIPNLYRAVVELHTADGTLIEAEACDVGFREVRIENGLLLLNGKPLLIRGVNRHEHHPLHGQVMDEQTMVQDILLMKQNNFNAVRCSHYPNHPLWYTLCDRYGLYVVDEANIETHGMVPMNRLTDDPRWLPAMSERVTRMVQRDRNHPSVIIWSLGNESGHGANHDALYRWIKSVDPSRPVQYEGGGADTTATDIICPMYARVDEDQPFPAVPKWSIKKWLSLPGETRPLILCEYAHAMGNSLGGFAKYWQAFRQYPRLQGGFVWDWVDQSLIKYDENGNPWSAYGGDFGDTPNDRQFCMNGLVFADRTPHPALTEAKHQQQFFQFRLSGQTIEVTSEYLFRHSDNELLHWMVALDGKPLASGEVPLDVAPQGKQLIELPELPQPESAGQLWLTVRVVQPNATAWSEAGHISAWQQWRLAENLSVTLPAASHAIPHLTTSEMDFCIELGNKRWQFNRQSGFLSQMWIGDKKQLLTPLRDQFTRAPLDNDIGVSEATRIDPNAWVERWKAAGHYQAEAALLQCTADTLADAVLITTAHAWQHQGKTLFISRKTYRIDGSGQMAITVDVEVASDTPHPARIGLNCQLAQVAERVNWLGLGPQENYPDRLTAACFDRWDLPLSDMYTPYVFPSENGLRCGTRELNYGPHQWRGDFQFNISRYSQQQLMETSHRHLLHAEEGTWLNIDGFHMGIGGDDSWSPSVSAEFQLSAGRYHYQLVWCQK

## Cc1c(-c2ccc(N3CCc4cccc(C(=O)Nc5nc6ccccc6s5)c4C3)nc2C(=O)OCc2ccc(O[C@@H]3O[C@H](CO)[C@H](O)[C@H](O)[C@H]3O)c([N+](=O)[O-])c2)cnn1CC12CC3CC(CC(C3)C1)C2 [Compound A13bGa1]
[1]
  hydrolysis under the action of β-gal enzyme, release of the parent compound A13: hydrolysed under the action of β-gal enzyme to release the parent compound A13
[2]
  killing of the senescent cells, efficiency and selectivity: highly efficient and selective in killing the senescent cells
[3]
  killing of the senescent cells, efficiency and selectivity: highly efficient and selective in killing the senescent cells
[4]
  killing of the senescent cells, efficiency and selectivity: highly efficient and selective in killing the senescent cells
[5]
  overall killing activity on the senescent cells compared with the parent compound A13: somewhat reduced compared with that of the parent compound A13
[6]
  toxicity to the normal cells compared with the parent compound A13: greatly reduced
[7]; [14]
  metabolised at 2 h, 10 µM: 0.07%
[7]; [15]
  remaining at 2 h, 10 µM: 99.9%
[8]; [14]
  metabolised at 2 h, 10 µM: 0.04%
[8]; [15]
  remaining at 2 h, 10 µM: 100%
[9]; [14]
  metabolised at 2 h, 10 µM: 0.48%
[9]; [15]
  remaining at 2 h, 10 µM: 99.5%
[10]
  stability in the plasma: highly stable
[11]
  The hepatic extraction ratio (E): 0.86
[11]; Fu and RB assumed to be 1
  The predicted intrinsic hepatic clearance Clint: 17.90 mL/min/kg
[11]; microsomes
  CLint scaled at 1 h, 1 µM: 132 mL/min/kg
  half-life at 1 h, 1 µM: 13.1 min
  microsomal CLint at 1 h, 1 µM: 106 µL/min/mg
[12]
  liver microsomal metabolic stability: good moderate metabolic stability
[13]
  anti-inflammatory and anti-fibrotic therapeutic effects: good anti-inflammatory and anti-fibrotic therapeutic effects
